Converted amounts (≈) assume the structure as drawn. “And” between values parts separate entries of the source, which are not always exact repeats. Identical values can stand only once. Counter-ions that a name gives are not always drawn.
What was measured:
[1] = In vitro excised skin iontophoretic delivery (flow-through cells); type: in vitro ADME, porcine; conditions: for delivery rate (FIG. 7): 50 mg/mL chloride salt
Protocol: Patch Designs: The 2 compartment patch design includes an absorbent drug reservoir with 2 cm^2 skin-contacting area and volume of 0.30 mL. The drug reservoir is separated from the electrode compartment with a 100 MWCO ultrafiltration membrane. The electrode compartment included a silver anode and cation exchange media in a hydrogel. A monolithic patch design was also used, consisting of a sandwich composed of a silver anode in the middle of 2 layers of absorbent material. The patches are assembled and loaded with the dosing solution just before applying to the skin.
Experimental Protocol: The iontophoretic delivery of a GPIIb/IIIa antagonist was carried out in a flow-through in vitro system. […] The patch was loaded a 10 mg/mL solution of the IIb/IIIa antagonist in 154 mM saline.
A silver chloride mesh return cathode was located upstream of the polycarbonate flow-through cells. Freshly dermatomed (1 mm) porcine skin was mounted in the cells on a porous support. The patches were dosed with aqueous solutions of the drug and then placed on top of the excised skin. The patches were secured by a spring-loaded mechanism that maintained even pressure over the patch. The cells were "perfused" by means of a peristaltic pump which pulls receiver solution through them. Effluents from the cells were collected with a fraction collector. Flow rates were typically 0.25 mL/min. The receiver solution was an isotonic pH 7.4 buffered saline solution containing 10 mM HEPES, 100 mM NaCl, PEG 400, and a surfactant, Pluronic P-103. lontophoresis current (50 μA) was provided by WPI power cells, and the applied currents and cell voltages were recorded with a Fluke databucket.
Results: The effluent receiver solution was measured in a series of six runs, to determine whether the ester was hydrolyzed during the period of the iontophoresis. Results were obtained by means of liquid scintillation counting (radioactivity), and HPLC-UV. The HPLC results are estimates based on calibration for the ester form only.
Patches: A dual compartment 2 cm^2 patch design, loaded with 100 mg/mL of the GPIIb/IIIa antagonist of Example 1, with a size exclusion or anion exchange membrane separator.
Experimental Protocol: See Example 1, with current applied at 400 μA.
Patches: A dual compartment 2 cm^2 patch design, loaded with 50 mg/mL chloride salt of the IIb/IIIa antagonist.
Experimental Protocol: See Example 1, current applied at 100 μA and 200 μA.
Patches: A dual compartment 2 cm^2 patch design, loaded with either: (1) a 1 mM NaCl, 150 mg/mL formulation of the IIb/IIIa antagonist of Example 1, or (2) a 75 mM NaCl, 100 mg/mL formulation of the drug.
Experimental Protocol: See Example 1, current applied at 100 μA for the 1 mM NaCl sample, and at 400 μA for the 75 mM NaCl sample.

[2] = Assay of extracts of the patch following completion of iontophoresis; type: in vitro ADME
[3] = In vivo swine experiments (iontophoretic delivery, plasma levels; comparison with constant IV infusion); set-up: species or system Yorkshire swine
Protocol: Patch Design: Same as in Example 1.
Experimental Protocol: In each experiment, the patches were loaded with a 20 mg/mL solution of the same IIb/IIIa antagonist used in Example 1 in 154 mM saline, immediately before application to the skin of the animals. Unanesthetized Yorkshire swine with weights of about 20 to 35 kg were used. The skin sites receiving the patches were wiped clean with moist gauze pads. Patches were overwrapped with an adhesive, elastic wrap to hold the patches in place. Separate constant current (100 μA) power supplies were provided for each iontophoresis patch system. Current and voltage readings were made and recorded by on-board dataloggers (Fluke databuckets).
Blood samples were withdrawn from the vena cava through an IV catheter into VACUTAINER™ blood collection tubes containing EDTA. After gentle mixing, the tubes were centrifuged to separate the plasma, which was transferred to clean polypropylene tubes and frozen on dry ice. Frozen samples were stored at -80° C. until assayed.
Results: FIGS. 4 and 5 provide a comparative illustration of the in vivo delivery of the GPIIb/IIIa antagonist (mentioned in Example 1) to pigs using constant IV infusion (FIG. 4) and constant iontophoresis (FIG. 5). IV infusion employed the acid form of the drug at an infusion rate of 10 μg/h.

[4] = Physicochemical properties; conditions: pH 4

SMILES	delivery rate (FIG. 7) ([1]; 100 μA, nearly flat delivery)	delivery rate (FIG. 7) ([1]; 200 μA, nearly constant delivery)	constancy of flux (FIG. 3) [1]	delivery rate profile (FIG. 8) ([1]; 1 mM NaCl, 150 mg/mL at 100 μA and 75 mM NaCl, 100 mg/mL at 400 μA, 24 hour iontophoresis)	dependence of in vitro delivery on current (FIG. 3) ([1]; 10 mg/mL drug, 9 mg/mL NaCl)	variability in delivery from skin to skin (FIG. 2) ([1]; 10 mg/mL, 154 mM NaCl, 50 μA)	delivery, anion exchange compared with size exclusion membrane patch (FIG. 6) ([1]; dual compartment 2 cm^2 patch, 100 mg/mL, 400 μA)	delivery rate profile (FIG. 6) ([1]; dual compartment patches, 100 mg/mL, 400 μA)	Total (Liquid Scintillation Assay) ([1]; effluent receiver solution, 10 mg/mL in 154 mM saline, 50 μA, six runs (sample 1-6))	metabolism of the positively charged ester to the uncharged zwitterion ([1]; in the skin or receptor fluid)	acid hydrolysis product in extracts of the patch [2]	variability in plasma levels with iontophoresis ([3]; 20 mg/mL in 154 mM saline patch)	blood levels, iontophoresis compared with constant IV infusion (FIGS. 4 and 5) ([3]; 20 mg/mL in 154 mM saline patch vs acid form IV at 10 μg/h, plasma acid drug form)	solubility [4]
CCCCOC(=O)N[C@@H](CNC(=O)C[C@H]1CC(c2ccc(C(=N)N)cc2)=NO1)C(=O)OC [chloride salt of the IIb/IIIa antagonist]	10 to 20 µg/h	20 to 35 µg/h												
CCCCOC(=O)N[C@@H](CNC(=O)C[C@H]1CC(c2ccc(C(=N)N)cc2)=NO1)C(=O)OC [GPIIb/IIIa antagonist, methyl-N^3-[2-{3-(4-formamidinophenyl)-isoxazolin-5(R)-yl}-acetyl]-N^2-(n-butyloxycarbonyl)-2,3-(S)-diaminopropanoate]			very constant over the 24 hour period	much more uniform delivery rates	proportional to increase in current	unexpectedly low	somewhat greater delivery	the flux starts high, and falls as electrolyte cations accumulate with time	4.76 µg/mL and 4.15 µg/mL and 4.05 µg/mL and 4.87 µg/mL and 5.56 µg/mL and 5.19 µg/mL	metabolized, to some extent	no detectable acid hydrolysis product	extremely low	similar	80 mg/mL (≈ 179 mM)
